Where a name gives a salt, the structure may show the parent alone.
Tests used:
MMP-12 = MMP-12 (Homo sapiens, UniProt P39900); experiment: In vitro inhibition of proteolysis of fluorogenic peptide substrate FP-1 by MMP-12; format: biochemical; details: substrate FP-1 10 μM, 20 minutes at ambient temperature, compounds tested 0.3 to 30 μM
Procedure: (§1) The inhibitory activity of the compounds of formula (I) with regard to metalloproteinase-12 is evaluated by testing the ability of the compounds of the invention to inhibit the proteolysis of a peptide substrate by MMP-12.
(§2) The inhibitory activity of a compound of formula (I) is expressed as IC50 value, which represents the concentration of inhibitor at which a degree of inhibition of the metalloproteinase of 50% is observed.
(§3) The reaction begins with the sequential addition of 41 μl of substrate FP-1 (final concentration of 10 μM) to a buffer solution of 50 mM of Tris-HCl and 10 mM of CaCl2, which comprises 5 mM of hydroxamic acid and 5 μl of the enzyme diluted in a 0.005% Brij-35 buffer solution. The microplates are incubated for 20 minutes at ambient temperature. The compounds of the invention are tested at concentrations varying from 0.3 to 30 μM.
(§4) The measurement of the amount of proteolysis of the peptide substrate is monitored by a measurement of absorbance at 405 nm using a microplate spectrophotometer, at ambient temperature. The IC50 values are calculated from curves in which the percentage of the catalytic activity relative to the control is represented on the […] and the concentration of inhibitor is represented on the Y axis.

MMP-13 = MMP-13 (Homo sapiens, UniProt P45452); experiment: MMP-12 test adapted to MMP-13; format: biochemical
Procedure: as §1, §2, §3, §4
The test described above for the inhibition of MMP-12 is adapted and used to determine the ability of the compounds of formula (I) to inhibit the metalloproteinases MMP-1, MMP-2, MMP-3, MMP-7, MMP-9, MMP-13 and MMP-14. […] More specifically, the compounds of the present invention generally show a selectivity with a factor of greater than 50 with respect to the metalloproteinases mentioned above, except towards MMP-13. Thus, the compounds of the present invention also show an inhibitory activity with regard to MMP-13, making it possible to also use the pharmaceutical compositions comprising one or more compounds of the invention in the treatment of pathologies related to activity of MMP-13. Mention may be made, among these pathologies, by way of indication and without implied limitation, of cancer, osetoporosis, osteoarthritis, arthritis, rheumatoid arthritis, atherosclerosis, multiple sclerosis, cardiac insufficiency, asthma and chronic obstructive pulmonary disease.

[1] = Solubility remark on the isolated sodium salt; format: physicochemical; details: sodium salt form, remark in the synthesis
Procedure: 1.2 ml of water and 30.5 mg of lithium hydroxide (5 equivalents) are added to a solution of 118 mg of the compound obtained in the preceding Stage 1 in 1.5 ml of methanol. The reaction medium is stirred at 50° C. for 2 hours and then concentrated under reduced pressure. The residue obtained is taken up in ether and the insoluble material is removed. The ethereal solution, after several treatments with acid and base, results in the formation of a precipitate, which is isolated.

Sequence of MMP-12 (P39900 106-470): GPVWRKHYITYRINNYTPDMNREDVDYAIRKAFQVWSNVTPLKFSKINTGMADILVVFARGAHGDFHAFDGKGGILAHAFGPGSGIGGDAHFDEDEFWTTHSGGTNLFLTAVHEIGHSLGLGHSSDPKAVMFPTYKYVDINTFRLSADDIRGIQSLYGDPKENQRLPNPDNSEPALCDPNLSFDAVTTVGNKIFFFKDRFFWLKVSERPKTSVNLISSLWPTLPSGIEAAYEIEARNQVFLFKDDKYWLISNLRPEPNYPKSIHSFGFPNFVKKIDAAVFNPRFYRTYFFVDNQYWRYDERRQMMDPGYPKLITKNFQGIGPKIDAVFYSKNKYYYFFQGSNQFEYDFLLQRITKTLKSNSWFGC

O=C(O)Cc1cccc(CNC(=O)c2cc(-c3ccc(OC(F)(F)F)cc3)cs2)c1 [Example 41, 2-[3-({[4-(4-Trifluoromethoxyphenyl)thien-2-yl]carboxamido}-methyl)phenyl]acetic acid]
IC50 (MMP-12): 0.883 µM | IC50 (MMP-13): 5.17 µM

O=C(NCC1CCC(C(=O)O)CC1)c1cc(-c2ccc(OC(F)(F)F)cc2)cs1 (stereo not shown) [Example 43, 4-({[4-(4-Trifluoromethoxyphenyl)thien-2-yl]carboxamido}-methyl)cyclohexanecarboxylic acid]
IC50 (MMP-12): 0.715 µM | IC50 (MMP-13): 5.37 µM

O=C(O)c1ccc(CNC(=O)c2cc(-c3ccc(OC(F)(F)F)cc3)cs2)nc1 [Example 45, 6-({[4-(4-Trifluoromethoxyphenyl)thien-2-yl]carboxamido}-methyl)nicotinic acid]
IC50 (MMP-12): 0.92 µM | IC50 (MMP-13): 2.85 µM

O=C(O)c1ccc(CNC(=O)c2cc(-c3ccc(OC(F)(F)F)cc3)cs2)cc1 [Example 47, 4-({[4-(4-Trifluoromethoxyphenyl)thien-2-yl]carboxamido}-methyl)benzoic acid]
IC50 (MMP-12): 0.436 µM | IC50 (MMP-13): 3.59 µM

O=C(O)Cc1ccc(NC(=O)c2cc(-c3ccc(OC(F)(F)F)cc3)cs2)cc1 [Example 55, (4-{[4-(4-Trifluoromethoxyphenyl)thien-2-yl]carboxamido}-phenyl)acetic acid]
IC50 (MMP-12): 0.615 µM | IC50 (MMP-13): 15.8 µM

O=C(O)CCc1cccc(CNC(=O)c2cc(-c3ccc(OC(F)(F)F)cc3)cs2)c1 [Example 65, 3-[3-({[4-(4-Trifluoromethoxyphenyl)thien-2-yl]carboxamido}-methyl)phenyl]propanoic acid]
IC50 (MMP-12): 0.685 µM | IC50 (MMP-13): 2.9 µM

O=C(NC[C@H]1CC[C@H](C(=O)O)CC1)c1cc(-c2ccc(-c3ccncc3)cc2)cs1 [Example 70, 4-[({4-[4-(Pyridinyl)phenyl]thien-2-yl}carboxamido)methyl]cyclo-hexanecarboxylic acid hydrochloride]
IC50 (MMP-12): 0.022 µM | IC50 (MMP-13): 0.285 µM

CC(=O)c1ccc(-c2ccc(-c3csc(C(=O)NCCN4CCOCC4)c3)cc2)cc1 [Example 72, 4-[4-(4-Acetylphenyl)phenyl]-N-(2-morpholin-4-ylethyl)thiophene-2-carboxamide]
IC50 (MMP-12): 0.057 µM | IC50 (MMP-13): 0.13 µM

O=C(NCCN1CCOCC1)c1cc(-c2ccc(-c3ccc(F)cc3)cc2)cs1 [Example 73, 4-[4-(4-Fluorophenyl)phenyl]-N-(2-morpholin-4-ylethyl)thiophene-2-carboxamide]
IC50 (MMP-12): 0.355 µM | IC50 (MMP-13): 0.4 µM

O=C(NCCN1CCOCC1)c1cc(-c2ccc(-c3cccc(O)c3)cc2)cs1 [Example 74, 4-[4-(3-Hydroxyphenyl)phenyl]-N-(2-morpholin-4-ylethyl)thiophene-2-carboxamide]
IC50 (MMP-12): 0.465 µM | IC50 (MMP-13): 6.25 µM

CS(=O)(=O)c1ccc(-c2ccc(-c3csc(C(=O)NCCN4CCOCC4)c3)cc2)cc1 [Example 75, 4-[4-(4-Methylsulphonylphenyl)phenyl]-N-(2-morpholin-4-ylethyl)thiophene2-carboxamide]
IC50 (MMP-12): 0.34 µM | IC50 (MMP-13): 0.27 µM

CC(=O)c1cccc(-c2ccc(-c3csc(C(=O)NCCN4CCOCC4)c3)cc2)c1 [Example 76]
IC50 (MMP-12): 0.48 µM | IC50 (MMP-13): 3.7 µM

O=C(O)Cc1ccc(CNC(=O)c2cc(-c3ccc(Oc4ccccc4)cc3)cs2)cc1 [Example 81, 2-[4-({[4-(4-Phenoxyphenyl)thien-2-yl]carboxamido}methyl)phenyl]-acetic acid]
IC50 (MMP-12): 0.5 µM | IC50 (MMP-13): 3.7 µM

O=C(NCc1cc(F)c(O)c(F)c1)c1cc(-c2ccc(OC(F)(F)F)cc2)cs1 [Example 84, N-(3,5-Difluoro-4-hydroxybenzyl)-4-(4-trifluoromethoxyphenyl)-thiophene-2-carboxamide]
IC50 (MMP-12): 0.56 µM | IC50 (MMP-13): 3.06 µM

O=C(NC[C@H]1CC[C@H](C(=O)O)CC1)c1cc(-c2ccc(OC(F)(F)F)cc2)cs1 [Example 99, trans-4-({[4-(4-Trifluoromethoxyphenyl)thien-2-yl]carboxamido}-methyl)cyclohexanecarboxylic acid, Sodium Salt]
IC50 (MMP-12): 0.45 µM | IC50 (MMP-13): 5 µM

O=C(NCCN1CCOCC1)c1cc(-c2ccc(-c3cccc(CO)c3)cc2)cs1 [Example 101, 4-{4-[3-(Hydroxymethyl)phenyl]phenyl}-N-(2-morpholin-4-ylethyl)-thiophene-2-carboxamide]
IC50 (MMP-12): 0.99 µM | IC50 (MMP-13): 3.7 µM

N#CCc1ccc(-c2ccc(-c3csc(C(=O)NCc4ccc(CC(=O)O)cc4)c3)cc2)cc1 [Example 109, 2-[4-({[4-(4′-Cyanomethyl-4-biphenyl)thien-2-yl]carboxamido}-methyl)phenyl]acetic acid]
IC50 (MMP-12): 0.165 µM | IC50 (MMP-13): 0.4 µM

O=C(O)Cc1ccc(CNC(=O)c2cc(-c3ccc(-c4cncnc4)cc3)cs2)cc1 [Example 111, 2-{4-[({4-[4-(Pyrimidin-5-yl)phenyl]thien-2-yl}carboxamido)-methyl]phenyl}acetic acid]
IC50 (MMP-12): 0.7 µM | IC50 (MMP-13): 2.2 µM

O=C(O)Cc1ccc(CNC(=O)c2cc(-c3ccc(-c4ccccc4O)cc3)cs2)cc1 [Example 115]
IC50 (MMP-12): 0.25 µM | IC50 (MMP-13): 3.32 µM

CC(=O)c1ccc(-c2ccc(-c3csc(C(=O)NCc4ccc(CC(=O)O)cc4)c3)cc2)c(O)c1 [Example 117, 2-{4-[({4-[4-(4-Acetyl-2-hydroxyphenyl)phenyl]thien-2-yl}-carboxamido)methyl]phenyl}acetic acid]
IC50 (MMP-12): 0.16 µM | IC50 (MMP-13): 0.31 µM

O=C(NCCN1CCOCC1)c1cc(-c2ccc(-c3ccccc3F)cc2)cs1 [Example 120, 4-[4-(2-Fluorophenyl)phenyl]-N-(2-morpholin-4-ylethyl)thiophene-2-carboxamide]
IC50 (MMP-12): 0.66 µM | IC50 (MMP-13): 6.1 µM

CC(=O)c1ccc(-c2ccc(-c3csc(C(=O)NC[C@H]4CC[C@H](C(=O)O)CC4)c3)cc2)cc1 [Example 123, trans-4-[({4-[4-(4-Acetylphenyl)phenyl]thien-2-yl}carboxamido)-methyl]cyclohexanecarboxylic acid]
IC50 (MMP-12): 0.018 µM | IC50 (MMP-13): 0.031 µM

O=C(O)CC[C@H]1CC[C@H](NC(=O)c2cc(-c3ccc(OC(F)(F)F)cc3)cs2)CC1 [Example 129, trans-3-(4-{[4-(4-Trifluoromethoxyphenyl)thien-2-yl]-carboxamido}cyclohexyl)propanoic acid]
IC50 (MMP-12): 0.78 µM | IC50 (MMP-13): 6.2 µM

O=C(O)CC1CCC(CNC(=O)c2cc(-c3ccc(OC(F)(F)F)cc3)cs2)CC1 (stereo not shown) [Example 131, [4-({[4-(4-Trifluoromethoxyphenyl)thien-2-yl]carboxamido}methyl)-cyclohexyl]acetic acid]
IC50 (MMP-12): 0.425 µM | IC50 (MMP-13): 3.3 µM

O=C(NCc1ccc(O)c(C(=O)O)c1)c1cc(-c2ccc(OC(F)(F)F)cc2)cs1 [Example 133, 2-Hydroxy-({[4-(4-trifluoromethoxyphenyl)thien-2-yl]-carboxamido}methyl)benzoic acid]
IC50 (MMP-12): 0.95 µM | IC50 (MMP-13): 2.65 µM

CC(=O)c1ccc(-c2ccc(-c3csc(C(=O)NCc4ccc(C(=O)O)cn4)c3)cc2)cc1 [Example 135, 6({[4-(4′-Acetyl-4-biphenyl)thien-2-yl]carboxamido}methyl)-nicotinic acid]
IC50 (MMP-12): 0.042 µM | IC50 (MMP-13): 0.08 µM

O=C(O)Cc1ccc(-c2ccc(-c3csc(C(=O)NCCN4CCOCC4)c3)cc2)cc1.[Na+] [Example 146, {4′-[5-(2-Morpholin-4-ylethylcarbamoyl)thiophen-3-yl]biphenyl-4-yl}-acetic acid, sodium salt]
solubility [1]: very low solubility

CC(C)[C@H](NC(=O)c1cc(-c2ccc(OC(F)(F)F)cc2)cs1)C(=O)O [Example 150, (2S)-2-{[4-(4-Trifluoromethoxyphenyl)thien-2-yl]carboxamido}-3-methylbutanoic acid]
IC50 (MMP-12): 0.78 µM | IC50 (MMP-13): 10.1 µM

From US20040072871A1, “Novel thiophene derivatives, their process of preparation and the pharmaceutical compositions which comprise them” (priority 2002, published 2004)
